Measurements: paper doi:10.1101/2024.12.09.627564, “Cannabinoid inhibition of mechanosensitive K^+ channels” (bioRxiv, 2024)

Columns and labels:
TRAAKA198E = biological target: T1, TRAAKA198E (Homo sapiens, UniProt Q9NYG8, A172E); experiment: Excised patch recording of TRAAK mutant A198E; assay type: biochemical
T1 construct: The transcribed messages encode H. sapiens TRAAK amino acids 1–393; expressed in transfected cells; host or cells: Xenopus laevis oocytes, cRNA injection
T1 sequence (Q9NYG8 1-393 A172E): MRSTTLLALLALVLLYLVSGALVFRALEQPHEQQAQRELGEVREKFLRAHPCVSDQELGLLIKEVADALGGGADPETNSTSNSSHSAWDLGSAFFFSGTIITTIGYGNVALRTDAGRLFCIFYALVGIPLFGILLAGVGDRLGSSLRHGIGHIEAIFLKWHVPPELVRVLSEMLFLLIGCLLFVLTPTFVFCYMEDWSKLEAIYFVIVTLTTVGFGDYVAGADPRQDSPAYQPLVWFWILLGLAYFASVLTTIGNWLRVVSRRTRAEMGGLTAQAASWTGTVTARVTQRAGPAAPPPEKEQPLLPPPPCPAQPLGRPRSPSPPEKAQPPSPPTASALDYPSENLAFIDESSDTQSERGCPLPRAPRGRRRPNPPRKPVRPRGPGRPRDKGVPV
Description: (§1) For patch clamp recording from Xenopus oocytes, genes encoding full-length Homo sapiens TRAAK (UniProt Q9NYG8–2), TREK-1 (UniProt O95069), and TREK-2 (UniProt P57789) were codon optimized for eukaryotic expression, synthesized (Genewiz), and cloned into a modified pGEMHE vector using Xho1 and EcoR1 restriction sites. The transcribed messages encode H. sapiens TRAAK amino acids 1–393, TREK-1 amino acids 1–426, or TREK-2 amino acids 1–538 with an additional three amino acids (SNS) at the C terminus. TRAAK mutants were introduced by polymerase chain reaction (PCR). Linearized DNA was transcribed in vitro using T7 polymerase. Complementary RNA (0.1 to 10 ng for TRAAK, TREK-1, TREK-2, and mutants) in 50 nL H2O was injected into Xenopus laevis oocytes extracted from anesthetized frogs. Currents were recorded at 25 °C from inside-out patches excised from oocytes 1 to 5 d after RNA injection. […]
(§2) Patches were evaluated with voltage-step protocols to confirm TRAAK expression and minimal non-specific leak based on reversal potential. Currents were recorded using an Axopatch 200B amplifier (Molecular Devices) at a bandwidth of 1 kHz and digitized with an Digidata 1550B (Molecular Devices) at 100–500 kHz using pClamp10.7 software. […] In an effort to minimize variability associated with differences in resting membrane tension, we targeted patches with low basal curvature and low resting channel activity and ensured measured pressure difference across the patch was as close to zero as possible at rest to prevent mechanical activation of channels. Data were analyzed using Clampfit 10.7, Excel, and Graphpad Prism software. […]
(§3) To avoid cannabinoid absorption to plastic, cannabinoid solutions were made in glass vials and diluted by weight, perfusion was performed using glass tubing pulled from borosilicate glass Pasteur pipettes (Fisherbrand, Cat# 13–678-20C), and recordings were performed in glass chambers. Channel activity was continuously recorded during perfusion steps. […]

Homo sapiens TREK-1 = biological target: T2, Homo sapiens TREK-1 (Homo sapiens, UniProt O95069); experiment: Excised inside-out patch recording of TREK-1 from Xenopus oocytes; assay type: biochemical
T2 construct: TREK-1 amino acids 1–426; expressed in transfected cells; host or cells: Xenopus laevis oocytes, cRNA injection
T2 sequence (O95069 1-426): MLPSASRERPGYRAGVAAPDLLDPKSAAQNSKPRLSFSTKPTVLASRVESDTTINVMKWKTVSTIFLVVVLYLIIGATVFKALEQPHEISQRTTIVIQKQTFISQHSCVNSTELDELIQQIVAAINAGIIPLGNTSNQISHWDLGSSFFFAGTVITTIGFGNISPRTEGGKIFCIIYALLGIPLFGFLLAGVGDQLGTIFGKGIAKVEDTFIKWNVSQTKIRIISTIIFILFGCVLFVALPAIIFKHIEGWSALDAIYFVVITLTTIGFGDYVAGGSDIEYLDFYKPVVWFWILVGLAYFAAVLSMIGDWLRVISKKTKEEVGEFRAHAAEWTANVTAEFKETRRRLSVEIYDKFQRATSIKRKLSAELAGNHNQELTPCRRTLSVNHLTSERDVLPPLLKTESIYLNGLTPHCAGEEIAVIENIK
Description: as §1, §2, §3

[1] = design: method as in PMID 32804502; conditions: slice recordings; cited from earlier work

C=C(C)[C@@H]1CCC(C)=C[C@H]1c1c(O)cc(CCCCC)cc1O [CBD, Cannabidiol]
IC50 (TRAAKA198E): 496 ± 26 nM
inhibition of channel activity at high concentration (TRAAKA198E; 10 μM CBD): fully inhibited
fold less sensitive than wild-type TRAAK (TRAAKA198E; A198E vs wild-type): ~ 4 fold
IC50 (Homo sapiens TREK-1): 1500 nM
Hill-coefficient (Homo sapiens TREK-1; TREK-1 dose-response): 1.5
fold less sensitive than TRAAK (Homo sapiens TREK-1; TREK-1 vs TRAAK): ~ 10 fold
concentration at which antiepileptic effects are observed [1]: ≤ 100 nM
